Here are results for 14 compounds from the Kinase Knowledgebase extract (Sharma et al. 2016).

For test [1], the target named is EGFR (human) (UniProt P00533). Conditions: a431.
In test [2] the target is EGFR (human) (UniProt P00533). To be noted: a549.
In test [3] the target is EGFR (human) (UniProt P00533). Conditions: mcf7.

pIC50: −log10 of the molar value.

Sequence of EGFR (human) (P00533 whole entry, looked up): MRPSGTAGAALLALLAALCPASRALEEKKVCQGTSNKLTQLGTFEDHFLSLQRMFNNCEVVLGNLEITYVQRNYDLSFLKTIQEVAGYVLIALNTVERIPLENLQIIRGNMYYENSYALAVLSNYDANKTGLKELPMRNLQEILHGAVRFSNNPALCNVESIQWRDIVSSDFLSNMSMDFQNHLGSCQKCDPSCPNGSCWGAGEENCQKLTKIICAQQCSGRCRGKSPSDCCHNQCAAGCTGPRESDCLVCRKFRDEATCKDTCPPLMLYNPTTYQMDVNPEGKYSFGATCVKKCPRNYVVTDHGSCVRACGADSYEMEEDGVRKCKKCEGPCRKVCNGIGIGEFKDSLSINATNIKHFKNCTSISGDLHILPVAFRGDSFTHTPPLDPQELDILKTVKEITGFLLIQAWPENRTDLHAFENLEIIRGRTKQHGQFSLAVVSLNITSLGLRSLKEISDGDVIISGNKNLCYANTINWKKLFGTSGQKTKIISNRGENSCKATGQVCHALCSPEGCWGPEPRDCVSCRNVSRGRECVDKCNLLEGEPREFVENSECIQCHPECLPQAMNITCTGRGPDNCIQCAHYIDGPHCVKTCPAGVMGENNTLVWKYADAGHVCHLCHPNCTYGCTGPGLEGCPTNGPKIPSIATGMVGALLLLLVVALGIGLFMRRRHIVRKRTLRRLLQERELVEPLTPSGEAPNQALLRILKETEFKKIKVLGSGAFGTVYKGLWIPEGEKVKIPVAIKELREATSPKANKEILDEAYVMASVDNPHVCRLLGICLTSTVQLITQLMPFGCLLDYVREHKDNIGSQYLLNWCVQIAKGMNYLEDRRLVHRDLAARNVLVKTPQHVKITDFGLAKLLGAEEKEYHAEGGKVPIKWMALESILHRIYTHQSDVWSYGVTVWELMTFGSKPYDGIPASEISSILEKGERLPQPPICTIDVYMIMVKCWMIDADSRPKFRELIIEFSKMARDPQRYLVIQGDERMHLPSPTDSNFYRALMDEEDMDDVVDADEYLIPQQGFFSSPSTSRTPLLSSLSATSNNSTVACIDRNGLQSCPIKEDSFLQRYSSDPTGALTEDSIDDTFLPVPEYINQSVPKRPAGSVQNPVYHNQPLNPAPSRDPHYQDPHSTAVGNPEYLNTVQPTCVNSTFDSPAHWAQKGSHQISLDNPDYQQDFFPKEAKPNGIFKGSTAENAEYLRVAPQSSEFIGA

In the case of `Clc1cccc(Nc2ncnc3ccc(NCc4ccc5c(c4)OCCCCO5)cc23)c1`, the negative-log IC50 (pIC50) was 4.70 against EGFR (human) [1], 4.17 against EGFR (human) [2] and 4.50 at EGFR (human) [3].
`Fc1cc(Br)ccc1Nc1ncnc2cc3c(cc12)OCCO3` gave a pIC50 against EGFR (human) [1] of 5.20.
On to `Brc1cccc(Nc2ncnc3ccc(NCc4ccc5c(c4)OCCCCO5)cc23)c1`, for which the values for the pIC50 at EGFR (human) [1], at EGFR (human) [2] and against EGFR (human) [3] were 4.65, less than 3.83 and 4.32, respectively.
With `O=C(Nc1ccc2ncnc(Nc3cccc(Cl)c3)c2c1)C1COc2ccccc2O1` (centres undefined), the pIC50 was 4.53 against EGFR (human) [1], 4.04 against EGFR (human) [2] and 4.11 on EGFR (human) [3].
The corresponding values for `Brc1cccc(Nc2ncnc3ccc(NCc4ccc5c(c4)OCCO5)cc23)c1` are 4.77, 4.10 and 4.84.
For `O=C(Nc1ccc2ncnc(Nc3cccc(Cl)c3)c2c1)c1cccc2c1OCCO2` the same measures were 4.15, less than 3.82 and 3.82.
For the compound `Brc1cccc(Nc2ncnc3cc4c(cc23)OCCO4)c1`, the pIC50 on EGFR (human) [1] was 6.12.
In the case of `Brc1cccc(Nc2ncnc3ccc(NCc4ccc5c(c4)OCO5)cc23)c1`, the pIC50 against EGFR (human) [1] was 4.99; against EGFR (human) [2], 3.99; against EGFR (human) [3] it was 4.67.
The corresponding values for `O=C(Nc1ccc2ncnc(Nc3cccc(Br)c3)c2c1)C1COc2ccccc2O1` (centres undefined) are 4.19, 3.95 and 3.82.
For `Brc1cccc(Nc2ncnc3ccc(NCc4ccc5c(c4)OCCCO5)cc23)c1` the same measures were 5.39, 4.65 and 5.14.
For `Clc1cccc(Nc2ncnc3ccc(NCc4ccc5c(c4)OCCCO5)cc23)c1` the same measures were 5.42, 4.35 and 5.21.
For the compound `Cc1cccc(Nc2ncnc3cc4c(cc23)OCCO4)c1`, on EGFR (human) [1], the negative logarithm of the IC50 (pIC50) is 6.17.
Same read-out and setting: in the case of `FC(F)(F)c1cccc(Nc2ncnc3cc4c(cc23)OCCO4)c1` it was 6.11.
Consider `O=C(Nc1ccc2ncnc(Nc3cccc(Br)c3)c2c1)c1cccc2c1OCCO2`, for which the pIC50 was 4.50 at EGFR (human) [1], 3.88 at EGFR (human) [2] and 4.03 on EGFR (human) [3].

The pIC50 is −log10 of the IC50, conventionally taken in molar units. Read a low pIC50 as a high IC50.
